The values that follow come from PubChem BioAssay (NCI).

Test systems include MCF7 breast; SK-MEL-2 melanoma; BT-549 breast; OVCAR-5 ovarian; NCI-H23 lung; OVCAR-3 ovarian; HS 578T breast; MALME-3M melanoma; MDA-MB-435; ACHN renal.
Assay in all cases: NCI anticancer screen, dose series, 48 h

Where “and” joins values, the source holds several entries; their conditions need not be identical. Identical values can stand only once.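 Compound exposure: 48 hours, 5 concentrations, 96-well plates. GI50 is the concentration that inhibits growth by half. TGI denotes the concentration required for complete inhibition of growth.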

Take `COc1ccccc1OCC(=O)Nc1sc2c(c1C(N)=O)CCC2`: the GI50 in the assay with MCF7 breast, with BT-549 breast, with OVCAR-5 ovarian, in the assay on NCI-H23 lung, in the assay with OVCAR-3 ovarian and in the assay on HS 578T breast was > 100 µM each time. Further, the GI50 in the assay on MALME-3M melanoma, with MDA-MB-435 and in the assay with ACHN renal was > 100 µM throughout. Moreover, the TGI with MCF7 breast was > 100 µM; in the assay with SK-MEL-2 melanoma, 68 µM; with BT-549 breast, > 100 µM; with OVCAR-5 ovarian it was > 100 µM; in the assay on NCI-H23 lung, > 100 µM; in the assay with OVCAR-3 ovarian, > 100 µM. The TGI in the assay with HS 578T breast, in the assay on MALME-3M melanoma, with MDA-MB-435 and with ACHN renal was > 100 µM in each case.
`O=C(Nc1ccccc1O)c1cccc(NC2=C(Cl)C(=O)N(Cc3ccccc3)C2=O)c1`: the GI50 with MCF7 breast was 2.7 µM; in the assay on SK-MEL-2 melanoma, 6.07 µM; in the assay on BT-549 breast, 11.9 µM; with OVCAR-5 ovarian, 13.4 µM; in the assay with NCI-H23 lung, 3.44 µM; in the assay with OVCAR-3 ovarian, 2.62 µM. In addition, the GI50 in the assay with HS 578T breast is 5.28 µM; in the assay with MALME-3M melanoma, 0.488 µM; in the assay on MDA-MB-435 it was 6.03 µM; with ACHN renal it was 4.73 µM. Also, the TGI came out at 14.8 µM with MCF7 breast; 24.1 µM in the assay on SK-MEL-2 melanoma; 29.8 µM in the assay on BT-549 breast; 27.7 µM in the assay on OVCAR-5 ovarian; 9.38 µM with NCI-H23 lung; 7.85 µM in the assay on OVCAR-3 ovarian. Also, the TGI with HS 578T breast came to 17.8 µM; with MALME-3M melanoma, 9.19 µM; in the assay with MDA-MB-435 it was 17.7 µM; with ACHN renal, 15.7 µM.
For the compound `Cn1cncc1[C@@](N)(c1ccc(Cl)cc1)c1ccc2c(c1)c(-c1cccc(Cl)c1)cc(=O)n2C`, the GI50 in the assay on MCF7 breast is 1.55 µM; in the assay on SK-MEL-2 melanoma, 1.39 µM; in the assay with BT-549 breast it was 3.16 µM; in the assay on OVCAR-5 ovarian it was 5.59 µM; in the assay on NCI-H23 lung it was 2.64 µM; with OVCAR-3 ovarian, 2.55 µM. Moreover, the GI50 in the assay with HS 578T breast was 2.77 µM; in the assay with MALME-3M melanoma, 0.901 µM; in the assay on MDA-MB-435, 0.172 µM; in the assay on ACHN renal it was 3.05 µM. For the same compound, the TGI in the assay on MCF7 breast is 13.5 µM; in the assay on SK-MEL-2 melanoma it was 4.99 µM; in the assay with BT-549 breast, 14.4 µM; with OVCAR-5 ovarian, 19.3 µM; in the assay with NCI-H23 lung it was 14.4 µM; with OVCAR-3 ovarian, 7.86 µM. Besides, the TGI with HS 578T breast turned out to be 15.5 µM; in the assay with MALME-3M melanoma it was 12.1 µM; with MDA-MB-435, 1.93 µM; in the assay on ACHN renal, 14.9 µM.
For the compound `CC[C@H](C)[C@H]1NC(=O)[C@@H](N[C@](C)(O)[C@@H](N)CC(C)C)[C@@H](C)OC(=O)[C@H](Cc2ccc(OC)cc2)N(C)C(=O)[C@@H]2CCCN2C(=O)[C@H](CC(C)C)NC(=O)[C@@H](C)C(=O)[C@H](C(C)C)OC(=O)C[C@@H]1O`, the GI50 is 0.00735 µM in the assay with MCF7 breast; 0.00972 µM in the assay on SK-MEL-2 melanoma; 0.0195 µM in the assay with BT-549 breast; 0.0204 µM in the assay with OVCAR-5 ovarian; 0.0122 µM in the assay on NCI-H23 lung; 0.0178 µM with OVCAR-3 ovarian. Also, the GI50 in the assay on HS 578T breast was 0.0164 µM; in the assay with MALME-3M melanoma, 0.0117 µM; with MDA-MB-435, 0.0151 µM; in the assay on ACHN renal it was 0.0428 µM. The TGI was found to be 0.166 µM with MCF7 breast; 0.0499 µM in the assay on SK-MEL-2 melanoma; 0.406 µM in the assay with BT-549 breast; 0.799 µM in the assay on OVCAR-5 ovarian; 0.146 µM in the assay with NCI-H23 lung; 0.232 µM in the assay on OVCAR-3 ovarian. Further, the TGI was 0.467 µM in the assay with HS 578T breast, 0.133 µM with MALME-3M melanoma, 0.397 µM in the assay with MDA-MB-435 and 2.67 µM in the assay with ACHN renal.
Consider `COc1ccc(CCN2C(=O)C=CC2=O)cc1OC`, for which the TGI with MCF7 breast was determined as 39.7 µM; in the assay on SK-MEL-2 melanoma, 14.8 µM; with BT-549 breast it was 35.3 µM; in the assay on OVCAR-5 ovarian, 35.6 µM; in the assay with NCI-H23 lung, 53.8 µM; in the assay with OVCAR-3 ovarian it was 36.4 µM. The TGI with HS 578T breast came to 99.6 µM; in the assay on MALME-3M melanoma, 29.8 µM; in the assay on MDA-MB-435, 34 µM; in the assay with ACHN renal, 3.17 µM.
`CCC(C)(C)C(=O)O[C@H]1C[C@@H](C)C=C2C=C[C@H](C)[C@H](CC[C@@H]3C[C@@H](O)CC(=O)O3)[C@H]21`: the GI50 is 12.2 µM in the assay on MCF7 breast; 0.765 µM in the assay with SK-MEL-2 melanoma; 4.61 µM with BT-549 breast; 9.19 µM in the assay with OVCAR-5 ovarian; 1.79 µM in the assay on NCI-H23 lung; 8.77 µM with OVCAR-3 ovarian. The GI50 in the assay with HS 578T breast was 2.7 µM; with MALME-3M melanoma, 13.9 µM; in the assay on MDA-MB-435, 8.03 µM; in the assay with ACHN renal, 0.882 µM. In addition, the TGI in the assay with MCF7 breast was 26.7 µM; in the assay with SK-MEL-2 melanoma it was 5.92 µM and 1.81 µM; with BT-549 breast it was 18.2 µM; in the assay with OVCAR-5 ovarian it was 22.9 µM; in the assay on NCI-H23 lung, 15.3 µM and 3.55 µM; in the assay with OVCAR-3 ovarian it was 21.4 µM and > 30 µM. The TGI with HS 578T breast is 16.4 µM; in the assay on MALME-3M melanoma, 30.5 µM; in the assay with MDA-MB-435 it was 21 µM; in the assay on ACHN renal, 10.3 µM and 2.38 µM.
Turning to `c1ccc(Cn2cc3c(c2-c2ccccc2)CCc2cnoc2-3)cc1`, the GI50 is 3.44 µM in the assay with MCF7 breast; 11.5 µM in the assay with SK-MEL-2 melanoma; 6.63 µM with BT-549 breast; 33 µM in the assay with OVCAR-5 ovarian; 4.92 µM in the assay on NCI-H23 lung; 3.73 µM in the assay with OVCAR-3 ovarian. Moreover, the GI50 in the assay on HS 578T breast is 3.88 µM; in the assay with MALME-3M melanoma, 3.13 µM; with MDA-MB-435 it was 1.89 µM; in the assay with ACHN renal it was 9.36 µM. In addition, the TGI was > 100 µM in the assay on MCF7 breast; > 100 µM with SK-MEL-2 melanoma; 56.1 µM in the assay with BT-549 breast; > 100 µM in the assay with OVCAR-5 ovarian; 69.2 µM with NCI-H23 lung; 24.7 µM in the assay with OVCAR-3 ovarian. Also, the TGI in the assay on HS 578T breast was 26.4 µM; in the assay on MALME-3M melanoma, 30.1 µM; in the assay on MDA-MB-435, 7.18 µM; with ACHN renal, > 100 µM.
Consider `CCOc1cccc(/C=N/NC(=O)c2ccc(Nc3ccnc(C(F)(F)F)c3)cc2)c1O`, for which the GI50 is 0.7 µM in the assay with MCF7 breast; 3.13 µM with SK-MEL-2 melanoma; 1.88 µM in the assay on BT-549 breast; 7.18 µM with OVCAR-5 ovarian; 2.26 µM with NCI-H23 lung; 0.298 µM with OVCAR-3 ovarian. The GI50 in the assay on HS 578T breast was 6.31 µM; in the assay on MALME-3M melanoma it was 2.29 µM; in the assay with MDA-MB-435, 6.19 µM; in the assay with ACHN renal, 0.728 µM. For the same compound, the TGI in the assay with MCF7 breast is > 59 µM; with SK-MEL-2 melanoma, > 45.4 µM; in the assay on BT-549 breast, > 85 µM; in the assay on OVCAR-5 ovarian, > 100 µM; with NCI-H23 lung, 38.6 µM; in the assay on OVCAR-3 ovarian, 28 µM. Also, the TGI in the assay with HS 578T breast is > 100 µM; with MALME-3M melanoma, > 47.8 µM; in the assay with MDA-MB-435, > 100 µM; in the assay with ACHN renal it was > 79.1 µM.
On to `COc1cc(NS(C)(=O)=O)ccc1Nc1c2ccc(Cl)cc2nc2c(OC)cccc12`, for which the GI50 was < 0.0161 µM in the assay with MCF7 breast; 1.47 µM in the assay with SK-MEL-2 melanoma; 0.441 µM with BT-549 breast; 1.59 µM with OVCAR-5 ovarian; 0.125 µM with NCI-H23 lung; 0.719 µM with OVCAR-3 ovarian. Moreover, the GI50 in the assay on HS 578T breast was 4.47 µM; in the assay with MALME-3M melanoma it was 0.211 µM; in the assay on MDA-MB-435, 0.913 µM; with ACHN renal, 0.0314 µM. The TGI in the assay with MCF7 breast came to 13.2 µM; in the assay with SK-MEL-2 melanoma it was 7.35 µM; in the assay with BT-549 breast it was 2.24 µM; with OVCAR-5 ovarian it was 23.3 µM; with NCI-H23 lung, 5.36 µM; in the assay on OVCAR-3 ovarian, 2.51 µM. Also, the TGI stood at 73.7 µM with HS 578T breast, 4.69 µM in the assay on MALME-3M melanoma, 16 µM with MDA-MB-435 and 1.5 µM in the assay on ACHN renal.
In the case of `O=[N+]([O-])c1ccc(Br)c([N+](=O)[O-])c1`, the GI50 in the assay with MCF7 breast was 1.9 µM; with SK-MEL-2 melanoma, 3.23 µM; with BT-549 breast it was 5.32 µM; with OVCAR-5 ovarian it was 1.77 µM; in the assay with NCI-H23 lung, 1.82 µM; in the assay on OVCAR-3 ovarian, 1.88 µM. The GI50 in the assay with HS 578T breast is 1.98 µM; in the assay on MALME-3M melanoma, 1.96 µM; in the assay on MDA-MB-435, 1.85 µM; in the assay with ACHN renal it was 1.8 µM. In addition, the TGI with MCF7 breast came out at 4.75 µM; in the assay with SK-MEL-2 melanoma, 10.3 µM; in the assay with BT-549 breast, 10.9 µM; in the assay on OVCAR-5 ovarian, 3.5 µM; in the assay on NCI-H23 lung, 3.66 µM; in the assay on OVCAR-3 ovarian, 3.38 µM. Also, the TGI with HS 578T breast was determined as 4.97 µM; with MALME-3M melanoma it was 4.18 µM; in the assay with MDA-MB-435, 3.58 µM; with ACHN renal, 3.48 µM.
`CC(=O)N1N=C2/C(=C/c3ccccc3)CC(C)CC2C1c1ccccc1` (centres undefined): the GI50 with MCF7 breast was 10.1 µM; with SK-MEL-2 melanoma, 18.7 µM; in the assay with BT-549 breast, 15.6 µM; in the assay with OVCAR-5 ovarian it was 17.7 µM; with NCI-H23 lung, 14.4 µM; in the assay on OVCAR-3 ovarian, 14.9 µM. Moreover, the GI50 in the assay on HS 578T breast was 15.4 µM; in the assay on MALME-3M melanoma it was 18 µM; in the assay with MDA-MB-435, 11.2 µM; in the assay on ACHN renal it was 13 µM. Moreover, the TGI with MCF7 breast was found to be 22.6 µM; with SK-MEL-2 melanoma, 46.3 µM; with BT-549 breast it was 33.1 µM; in the assay on OVCAR-5 ovarian it was 32.2 µM; with NCI-H23 lung, 28 µM; in the assay on OVCAR-3 ovarian, 32.6 µM. Besides, the TGI in the assay on HS 578T breast is 34.6 µM; in the assay with MALME-3M melanoma it was 37.4 µM; in the assay on MDA-MB-435, 27.7 µM; in the assay on ACHN renal, 26.8 µM.
